Assay results as given in publication PMC6858373 (Scientific Reports, 2019).
Counter-ions that a name gives are not always drawn. Like-named read-outs stand apart in the source and are kept apart here.

Tests used:
[1] = molecular target: full-length P. pyralis luciferase (Photinus pyralis, UniProt P08659, K549A/L550V/N119G/N50D/S548I); assay type: cell-based
[2] = molecular target: T1, FGF14:Nav1.6 C-tail complex (Homo sapiens, UniProt Q92915+Q9UQD0); assay: Split-luciferase complementation assay (LCA) in Clone V double stable HEK293 cells; assay type: cell-based; conditions: for Split Luciferase Assay Z-score Set 1 / Split Luciferase Assay % Lum Set 1: biological replicate Set 1; for Split Luciferase Assay Z-score Set 1 / Split Luciferase Assay Z-score Set 2: normalized to on-plate 0.3% DMSO controls; for Split Luciferase Assay % Lum Set 1 / Split Luciferase Assay %Lum Set 2: normalized to on-plate 0.3% DMSO controls (n=16 per plate); for Split Luciferase Assay Z-score Set 2 / Split Luciferase Assay %Lum Set 2: biological replicate Set 2; for Split Luciferase Assay %Lum Avg: average of Set 1 and Set 2, normalized to 0.3% DMSO controls
T1 construct: polymerase chain reaction (PCR) amplification of the FGF14 open reading frame (nt 1–855); C-terminal fragment of Nav1.6 (amino acids 1763–1976) fused with CD4ΔC-tail (amino acids 1–395); expressed in transfected cells

[3] = CC_NCI screening, normalized to on-plate 0.3% DMSO controls
[4] = CC_NCI screening, full-length luciferase counter-screen luminescence, normalized to on-plate 0.3% DMSO controls
[5] = CC_NCI screening, full-length luciferase counter-screen, normalized to on-plate 0.3% DMSO controls
[6] = CC_NCI screening, LCA luminescence

Chain of full-length P. pyralis luciferase (P08659 whole entry N50D/N119G/S548I/K549A/L550V, looked up): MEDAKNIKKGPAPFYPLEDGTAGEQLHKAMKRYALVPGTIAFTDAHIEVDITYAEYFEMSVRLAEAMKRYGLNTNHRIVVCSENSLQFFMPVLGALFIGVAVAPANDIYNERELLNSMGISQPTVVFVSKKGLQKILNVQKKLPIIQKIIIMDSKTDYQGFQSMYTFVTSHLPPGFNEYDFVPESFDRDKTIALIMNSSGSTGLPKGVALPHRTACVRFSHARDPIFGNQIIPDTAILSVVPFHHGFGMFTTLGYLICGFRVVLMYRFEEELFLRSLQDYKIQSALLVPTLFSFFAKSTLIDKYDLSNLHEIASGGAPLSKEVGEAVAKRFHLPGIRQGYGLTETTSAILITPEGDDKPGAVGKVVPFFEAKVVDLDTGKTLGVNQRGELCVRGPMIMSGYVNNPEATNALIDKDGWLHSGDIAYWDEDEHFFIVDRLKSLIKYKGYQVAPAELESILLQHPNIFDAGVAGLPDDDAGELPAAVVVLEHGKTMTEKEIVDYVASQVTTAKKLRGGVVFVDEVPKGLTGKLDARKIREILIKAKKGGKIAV
T1 sequence (Q92915 1-252 isoform Q92915-2): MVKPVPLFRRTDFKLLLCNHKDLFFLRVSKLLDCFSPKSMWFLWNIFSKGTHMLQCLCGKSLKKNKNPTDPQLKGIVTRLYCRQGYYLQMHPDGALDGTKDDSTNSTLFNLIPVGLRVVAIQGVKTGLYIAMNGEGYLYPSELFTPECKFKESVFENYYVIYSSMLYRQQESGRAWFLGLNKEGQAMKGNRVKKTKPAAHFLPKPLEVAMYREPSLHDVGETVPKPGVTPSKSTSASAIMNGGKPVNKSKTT
T1 sequence (Q9UQD0 1763-1976 limits assumed): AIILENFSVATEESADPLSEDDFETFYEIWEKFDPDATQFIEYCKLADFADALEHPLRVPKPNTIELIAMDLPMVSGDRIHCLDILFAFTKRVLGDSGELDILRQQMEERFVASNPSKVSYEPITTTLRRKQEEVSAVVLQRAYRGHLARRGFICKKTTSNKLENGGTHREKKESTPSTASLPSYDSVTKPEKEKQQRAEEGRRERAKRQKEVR

Row | Compound | Toxicity Assay % Fluor (CTB cell viability fluorescence) (Clone V cells) | Toxicity Assay Z-score (CTB cell viability) (Clone V cells) | Luciferase Assay % Lum (full-length luciferase counter-screen) [1, 3] | Luciferase Assay Z-score (full-length luciferase counter-screen) [1, 3] | Split Luciferase Assay Z-score Set 1 ([2]; CC_NCI screening) | Split Luciferase Assay Z-score Set 2 ([2]; CC_NCI screening) | Split Luciferase Assay %Lum Set 2 ([2]; CC_NCI screening) | Split Luciferase Assay %Lum Avg [2] | Toxicity Assay % Fluor (Clone V cells; human, 16 h, 30 µM) | Toxicity Assay Z-score (Clone V cells; human, 16 h, 30 µM) | Luciferase Assay % Lum [1, 4] | Luciferase Assay Z-score [1, 5] | Split Luciferase Assay % Lum Set 1 [2, 6] | Split Luciferase Assay %Lum Set 2 [2, 6] | Split Luciferase Assay Z-score Set 1 ([2]; CC_NCI screening, LCA) | Split Luciferase Assay Z-score Set 2 ([2]; CC_NCI screening, LCA) | Split Luciferase Assay %Lum Avg ([2]; CC_NCI screening) | further results
1 | CC(C)[C@H](NS(=O)(=O)c1ccc(-c2ccc(Br)cc2)cc1)C(=O)O [PD 166793] | 105.53% | 0.77 | 99.99% | 0.00 | 0.38 | -1.11 | 86.35% | 95.52% | – | – | – | – | – | – | – | – | – | Split Luciferase Assay % Lum Set 1 ([2]; CC_NCI screening): 104.69%
2 | Cn1cc(C2=C(c3cn(C4CCN(Cc5ccccn5)CC4)c4ccccc34)C(=O)NC2=O)c2ccccc21 [ENZASTAURIN] | – | – | – | – | – | – | – | – | 95.12% | -0.68 | 90.70% | -1.19 | 84.03% | 96.75% | -1.29 | -0.26 | 90.39% | –
3 | Cn1cc(/C=C2\C(=O)Nc3cccnc32)c2ccccc21 [GW 441756] | 107.67% | 1.07 | 109.93% | 1.27 | -0.50 | -2.30 | 71.78% | 82.80% | – | – | – | – | – | – | – | – | – | Split Luciferase Assay % Lum Set 1 ([2]; CC_NCI screening): 93.82%
4 | COc1cc2c(cc1OC)[C@@H]1C(=O)c3ccc4c(c3O[C@@H]1CO2)C=CC(C)(C)O4 [DEGUELIN] | – | – | – | – | – | – | – | – | – | – | 66.30% | -4.32 | 27.50% | 26.01% | -5.86 | -6.02 | 26.76% | Toxicity Assay % Fluor (Clone V cells; human): 100.58%; Toxicity Assay Z-score (Clone V cells; human): 0.08
5 | O=C(CCBr)N1CCN(C(=O)CCBr)CC1 [Pipobroman] | – | – | – | – | – | – | – | – | 98.07% | -0.27 | – | – | 125.34% | 121.72% | 2.05 | 1.77 | 123.53% | Luciferase Assay % Lum [1]: 102.03%; Luciferase Assay Z-score [1]: 0.26
6 | COc1cccc2c1C(=O)c1c(O)c3c(c(O)c1C2=O)C[C@@](O)(C(=O)CO)C[C@@H]3O[C@H]1C[C@H](N)[C@@H](O)[C@H](C)O1 [Epirubicin hydrochloride] | – | – | – | – | – | – | – | – | 86.21% | -1.93 | 76.16% | -3.05 | 44.90% | 45.77% | -4.45 | -4.41 | 45.34% | –
7 | CCNC(=O)c1noc(-c2cc(C(C)C)c(O)cc2O)c1-c1ccc(CN2CCOCC2)cc1 [NVP AUY922] | – | – | – | – | – | – | – | – | 88.69% | -1.58 | 86.39% | -1.74 | 40.55% | 50.98% | -4.80 | -3.99 | 45.76% | –
8 | DNA-PK INHIBITOR V | 115.08% | 2.11 | 82.55% | -2.23 | -0.59 | -0.01 | 99.87% | 96.30% | – | – | – | – | – | – | – | – | – | Split Luciferase Assay % Lum Set 1 ([2]; CC_NCI screening): 92.73%
9 | Cc1nc(Nc2ncc(C(=O)Nc3c(C)cccc3Cl)s2)cc(N2CCN(CCO)CC2)n1 [DASATINIB] | – | – | – | – | – | – | – | – | 83.83% | -2.26 | 82.88% | -2.19 | 38.37% | 65.54% | -4.98 | -2.80 | 51.96% | –
10 | Cn1cc(CNCC2CCN(c3ncc(C(=O)NO)cn3)CC2)c2ccccc21 [JNJ-26481585] | – | – | – | – | – | – | – | – | – | – | 97.58% | -0.31 | 112.30% | 109.23% | 0.99 | 0.75 | 110.77% | Toxicity Assay % Fluor (Clone V cells): 96.89%; Toxicity Assay Z-score (Clone V cells): -0.43
11 | c1cc(-c2cnn3cc(-c4ccc(OCCN5CCCCC5)cc4)cnc23)ccn1 [COMPOUND C] | 115.42% | 2.16 | 104.57% | 0.59 | 3.01 | 1.26 | 115.47% | 126.39% | – | – | – | – | – | – | – | – | – | –
12 | O=c1[nH]c(=O)n([C@H]2C[C@H](O)[C@@H](CO)O2)cc1F [Floxuridine, reference compound] | – | – | – | – | – | – | – | – | 90.13% | -1.38 | 100.29% | 0.04 | 154.69% | – | 4.42 | 3.04 | 146.01% | Z-score (LCA primary screening) ([2]; 30 µM, 384-well, average of primary screening (n = 2), vs on-plate 0.3% DMSO): 3.73; EMax (% Luminescence) ([2]; agonists, Clone V cells, 384-well, normalized to DMSO): 146.01 % Luminescence; EC50 ([2]; estimated, 8-point dose response 0.25-30 µM, n = 4 per concentration, library compounds, read-out: EC50): 2.46 µM
13 | NC(=O)c1ncn([C@@H]2O[C@H](CO)[C@@H](O)[C@H]2O)c1N [AICAR] | 108.29% | 1.16 | 107.04% | 0.90 | 0.03 | 0.84 | 110.27% | 105.31% | – | – | – | – | – | – | – | – | – | Split Luciferase Assay % Lum Set 1 ([2]; CC_NCI screening): 100.34%
14 | O=C1c2c(O)ccc(O)c2C(=O)c2c(NCCNCCO)ccc(NCCNCCO)c21 [Mitoxantrone] | – | – | – | – | – | – | – | – | 90.67% | -1.30 | 40.29% | -7.65 | 5.76% | 15.60% | -7.62 | -6.87 | 10.68% | –
15 | Cc1ccc(Nc2nccc(N(C)c3ccc4c(C)n(C)nc4c3)n2)cc1S(N)(=O)=O.Cl [Pazopanib hydrochloride] | – | – | – | – | – | – | – | – | – | – | 59.40% | -5.20 | 13.37% | 28.09% | -7.00 | -5.85 | 20.73% | Toxicity Assay % Fluor (Clone V cells): 92.21%; Toxicity Assay Z-score (Clone V cells): -1.09
